Results as given in ChEMBL document CHEMBL1938362, “Synthesis and properties of molecular probes for the rescue site on mutant cystic fibrosis transmembrane conductance regulator” (J Med Chem, 2011).

Assays:
[1] = tested on: Cystic fibrosis transmembrane conductance regulator (Homo sapiens), P13569 [G551D]; test: Modulation of C-terminal His10-tagged CFTR G551D mutant in liposomes of egg phosphatidylcholine assessed as increase in iodine influx at 10 uM after 5 mins […] in presence of protein kinase A and valinomycin relative to control
Sequence of Cystic fibrosis transmembrane conductance regulator (Homo sapiens), P13569 [G551D] (P13569 whole entry G551D): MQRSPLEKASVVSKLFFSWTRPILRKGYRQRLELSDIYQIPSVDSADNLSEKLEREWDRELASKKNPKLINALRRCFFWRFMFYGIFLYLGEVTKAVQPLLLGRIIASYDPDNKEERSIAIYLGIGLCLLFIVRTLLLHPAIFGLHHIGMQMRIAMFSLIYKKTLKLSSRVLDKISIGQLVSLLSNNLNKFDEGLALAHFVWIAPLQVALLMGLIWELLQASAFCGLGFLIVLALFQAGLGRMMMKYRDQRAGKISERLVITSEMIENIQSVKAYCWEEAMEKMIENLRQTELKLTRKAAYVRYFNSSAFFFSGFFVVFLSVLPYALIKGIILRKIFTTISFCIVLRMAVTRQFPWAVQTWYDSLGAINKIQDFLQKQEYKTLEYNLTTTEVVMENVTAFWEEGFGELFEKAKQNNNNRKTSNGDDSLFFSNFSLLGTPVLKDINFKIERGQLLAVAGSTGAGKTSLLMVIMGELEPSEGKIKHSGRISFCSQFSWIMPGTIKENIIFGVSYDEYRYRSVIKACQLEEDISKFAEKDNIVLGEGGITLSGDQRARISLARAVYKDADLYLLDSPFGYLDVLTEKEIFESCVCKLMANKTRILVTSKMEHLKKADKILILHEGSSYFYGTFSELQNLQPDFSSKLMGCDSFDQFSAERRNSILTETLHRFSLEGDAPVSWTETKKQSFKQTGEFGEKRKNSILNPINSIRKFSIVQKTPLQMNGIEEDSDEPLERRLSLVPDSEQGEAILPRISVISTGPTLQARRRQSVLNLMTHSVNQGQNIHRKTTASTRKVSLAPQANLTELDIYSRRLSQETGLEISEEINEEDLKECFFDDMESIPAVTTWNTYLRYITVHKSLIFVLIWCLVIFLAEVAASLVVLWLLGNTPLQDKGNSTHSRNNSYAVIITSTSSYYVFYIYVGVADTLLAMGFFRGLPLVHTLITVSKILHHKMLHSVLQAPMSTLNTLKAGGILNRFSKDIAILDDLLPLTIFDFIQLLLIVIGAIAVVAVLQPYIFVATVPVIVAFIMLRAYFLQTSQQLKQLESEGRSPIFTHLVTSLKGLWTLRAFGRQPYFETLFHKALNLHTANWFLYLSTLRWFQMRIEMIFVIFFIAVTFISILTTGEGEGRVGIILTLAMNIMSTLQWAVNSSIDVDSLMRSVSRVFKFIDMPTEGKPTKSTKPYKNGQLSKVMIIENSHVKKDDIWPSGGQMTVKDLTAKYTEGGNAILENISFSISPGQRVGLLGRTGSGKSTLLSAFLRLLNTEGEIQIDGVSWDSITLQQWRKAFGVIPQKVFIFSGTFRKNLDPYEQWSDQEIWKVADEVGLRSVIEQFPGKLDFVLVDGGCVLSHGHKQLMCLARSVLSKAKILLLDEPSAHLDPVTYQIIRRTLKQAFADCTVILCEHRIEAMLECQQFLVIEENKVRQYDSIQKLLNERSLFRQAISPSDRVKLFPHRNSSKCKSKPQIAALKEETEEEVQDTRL

[2] = tested on: BHK; test: Modulation of CFTR F508 deletion mutant expressed in BHK cells assessed as increase in forskolin-stimulated iodine influx at 10 uM after 5 mins […] (reference value: 1.4 +/- 0.4 nM/s); type: cell-based

Structure (SMILES)	Activity [1]	Activity [2]
Cc1ccc(O)c(-c2cc(-c3ccc(C#CCNS(=O)(=O)c4cccc5c(N(C)C)cccc45)cc3)[nH]n2)c1	11.2 nM/s	1.7 nM/s
Cc1ccc(O)c(-c2cc(-c3ccc(N)cc3)[nH]n2)c1		5.1 nM/s
Cc1ccc(O)c(-c2cc(-c3ccccc3)[nH]n2)c1	16.9 nM/s	9.9 nM/s
Cc1ccc(O)c(-c2cc(-c3ccc([N+](=O)[O-])cc3)[nH]n2)c1		5.1 nM/s
Cc1ccc(O)c(-c2cc(-c3ccc(I)cc3)[nH]n2)c1		5.1 nM/s
Cc1ccc(O)c(-c2cc(-c3ccc(N=[N+]=[N-])cc3)[nH]n2)c1		5.1 nM/s
